Results published in patent publication US5077059A, “Process for preparing melanogenic inhibitor, and pigmentation-lightening agent containing the same” (Yuaka; Mishimazo, priority 1987, dated 1991).

How the values were obtained:
Assay type in all cases: cell-based
[1] = tested on: Malme-3M cell (human melanoma origin); test: Comparison of melanogenic inhibitory activity, Malme-3M cell; settings: Experiment 2, Malme-3M cell; intact melanogenic inhibitor at 1 or 3 units
Description: (§1) According to the method for detecting melanogenic inhibitory activity in a prescribed pigment cell, specimens containing 1 or 3 units of an intact melanogenic inhibitor, obtained by the method in Experiment 1, were used to compare melanogenic inhibitory activity in established melanoma cell lines, i.e., B-16 cell (mouse melanoma origin), RPMI 1846 cell (hamster melanoma origin), and Malme-3M cell (human melanoma origin).
(§2) As control, either a system without melanogenic inhibitor or another system with melanogenic inhibitor which had been treated at […] for 2 hours was tested similarly as above.

[2] = tested on: RPMI 1846 cell (hamster melanoma origin); test: Comparison of melanogenic inhibitory activity, RPMI 1846 cell; settings: Experiment 2, RPMI 1846 cell; intact melanogenic inhibitor at 1 or 3 units
Description: as §1, §2

[3] = tested on: B-16 cell derived from mouse melanoma; test: Melanogenic inhibitory activity in a prescribed pigment cell (B-16); settings: Experiment 2, B-16 cell; intact melanogenic inhibitor at 1 or 3 units
Experimental: The melanogenic inhibitory activity in a prescribed pigment cell is detected by the method described in Cancer Research, Vol. 42, pp. 1994-2002 (1982).
B-16 cell derived from mouse melanoma is suspended in 10 ml Eagle's minimal essential medium (Grand Island Biological Co., Grand Island, N.Y.), supplemented with 10% fetal calf serum, to give 4×10^4 cells. The suspension is placed into a 25 cm^2 Roux's flask, and cultured at 37° C. with 5% CO2. The cultivation is continued for 5 days while replacing the culture medium with a fresh one supplemented with a melanogenic inhibitor specimen at the first- and third-days. After completion of the culture, the resultant cells are washed with a phosphate buffer (pH 7.2) containing 0.8 w/v % saline to detach them from the inside wall of the Roux's flask by the addition of a solution containing trypsin and EDTA (ethylenediaminetetraacetic acid), collected on a filter paper, and dried. The resultant cells are subjected to densitometry to measure the reflection light at a wave length of 500 nm, followed by determination of the reflection absorbance (degree of darkness).
One unit of melanogenic inhibitory activity is defined as the amount of the melanogenic inhibitor which halves the reflection absorbance of B-16 cells without treatment of melanogenic inhibitor.
as §1

Measured: melanogenic inhibitory activity, comparison

N[C@@H](CS)C(=O)O [cysteine]
no melanogenic inhibition: all assays above

N[C@@H](CCC(=O)N[C@@H](CS)C(=O)NCC(=O)O)C(=O)O [glutathione]
no melanogenic inhibition: all assays above

O=C1O[C@H]([C@@H](O)CO)C(O)=C1O [vitamin C]
no melanogenic inhibition: all assays above
